The values below are quoted from earlier work in patent publication US20170252311A1, “SPHINGOSINE KINASE INHIBITORS AND CERAMIDE FOR MAINTENANCE THERAPY OF GLIOBLASTOMA” (SignPath Pharma Inc., priority 2016, published 2017).

In one data set the test system is SK (sphingosine kinase). As to conditions: arrow down = decrease, arrow up = increase (not defined in patent).
Data set [1] deals with Cer Syn (ceramide synthase).
Data set [2] relates to JC mammary adenocarcinoma cells. As to conditions: syngeneic BALB/c mouse solid tumor model of JC cells.
In data set [3] the test system is U87MG, U1242MG, M059K cell lines. As to conditions: in all three lines.
Data set [4] has as its system JC mouse mammary adenocarcinoma cell line.
A further data set deals with tumor. As to conditions: single agent.
Data set [5] relates to GTP cyclohydrolase (GTPCH). As to conditions: C6 glioma cell line.
Data set [6] deals with xenograft prostate cancer models.
In data set [7] the test system is prostate cancer cell lines and TRAMP-C2 xenografts.
Data set [8] addresses T1, Acid Cer (Acid ceramidase) (Homo sapiens, UniProt Q13510).
T1 sequence (Q13510 22-395): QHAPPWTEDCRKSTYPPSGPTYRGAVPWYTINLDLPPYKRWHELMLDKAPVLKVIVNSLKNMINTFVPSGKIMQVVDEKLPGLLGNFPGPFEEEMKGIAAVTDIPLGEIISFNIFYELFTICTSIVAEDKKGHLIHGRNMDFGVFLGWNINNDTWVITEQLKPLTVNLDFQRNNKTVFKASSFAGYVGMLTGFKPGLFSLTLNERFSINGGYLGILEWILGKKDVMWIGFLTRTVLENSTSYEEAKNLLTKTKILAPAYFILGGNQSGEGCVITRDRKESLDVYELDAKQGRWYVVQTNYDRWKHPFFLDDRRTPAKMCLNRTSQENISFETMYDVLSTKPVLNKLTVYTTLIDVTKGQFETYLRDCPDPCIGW

In data set [9] the target is GCS (glucosylceramide synthase) (Homo sapiens, UniProt Q16739).
In data set [10] the test system is SPT (serine palmitoyltransferase).
The subject of data set [11] is LN229 and U373 glioblastoma cell lines, non-established human GBM6 cells, and GBM xenografts.
The test system of the next data set is protein kinase C. As to conditions: selectivity.
Data set [12] relates to LN229 intracranial xenografts.
Data set [13] deals with other serine/threonine kinases. As to conditions: selectivity.
Another data set has as its target SK2 (Homo sapiens, UniProt Q9NRA0). As to conditions: selectivity.
The next data set deals with protein kinase B. As to conditions: selectivity.
In data set [14] the test system is human leukemic cell lines and acute myelogenous leukemia xenografts. As to conditions: human leukemic cell lines and AML xenografts. Background: Xenograft models place foreign cells or tissue in a host animal.

Structures are written as SMILES. Where two headings read alike, the source gives them in different places.

Chain of GCS (glucosylceramide synthase) (Q16739 whole entry, species assumed): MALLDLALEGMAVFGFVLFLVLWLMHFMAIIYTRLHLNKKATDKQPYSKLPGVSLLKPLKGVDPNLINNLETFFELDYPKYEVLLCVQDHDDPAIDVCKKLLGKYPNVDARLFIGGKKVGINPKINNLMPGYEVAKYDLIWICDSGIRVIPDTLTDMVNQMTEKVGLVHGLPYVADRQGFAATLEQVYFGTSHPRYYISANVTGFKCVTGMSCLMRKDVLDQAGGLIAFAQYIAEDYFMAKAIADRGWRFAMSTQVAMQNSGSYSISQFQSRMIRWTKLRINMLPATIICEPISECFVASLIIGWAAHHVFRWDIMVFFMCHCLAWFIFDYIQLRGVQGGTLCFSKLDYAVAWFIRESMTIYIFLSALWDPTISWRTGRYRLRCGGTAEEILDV
Chain of SK2 (Q9NRA0 whole entry): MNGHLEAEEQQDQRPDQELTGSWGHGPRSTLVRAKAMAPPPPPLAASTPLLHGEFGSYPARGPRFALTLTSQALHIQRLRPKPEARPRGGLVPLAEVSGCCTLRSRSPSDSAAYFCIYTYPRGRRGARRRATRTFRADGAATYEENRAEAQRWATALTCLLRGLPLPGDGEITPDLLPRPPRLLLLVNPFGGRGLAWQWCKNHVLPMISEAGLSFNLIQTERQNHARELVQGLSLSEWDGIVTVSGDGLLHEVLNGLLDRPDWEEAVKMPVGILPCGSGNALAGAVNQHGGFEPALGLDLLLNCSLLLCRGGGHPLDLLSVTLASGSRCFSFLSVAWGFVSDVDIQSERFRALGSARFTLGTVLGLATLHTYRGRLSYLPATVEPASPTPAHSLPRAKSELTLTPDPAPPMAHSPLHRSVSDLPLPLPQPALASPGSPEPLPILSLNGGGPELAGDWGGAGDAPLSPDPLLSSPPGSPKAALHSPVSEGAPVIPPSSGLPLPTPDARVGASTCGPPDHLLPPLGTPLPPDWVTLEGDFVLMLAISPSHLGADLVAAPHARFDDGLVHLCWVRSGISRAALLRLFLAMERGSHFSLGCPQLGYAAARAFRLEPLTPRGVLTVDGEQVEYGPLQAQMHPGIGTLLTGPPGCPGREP

In the case of `Cc1ccc(NC(=O)c2ccc(CN3CCN(C)CC3)cc2)cc1Nc1nccc(-c2cccnc2)n1` [Imatinib], the “Sphingolipid Enzymes Affected: SK” value with SK (sphingosine kinase) was “↓SK”. The “Sphingolipid Enzymes Affected: Cer Syn” value in data set [1] is listed as “↑Cer Syn”.

For `Oc1ccc(Nc2nc(-c3ccc(Cl)cc3)cs2)cc1` [SKI-II, 4-[4-(4-chloro-phenyl)-thiazol-2-ylamino]-phenol], the anti-tumor activity result in data set [2] is “especially effective”. For the same compound, the cellular proliferation entry in data set [3] (listed as 2-(p-Hdroxyanilino)-4-(p-chlorophenyl)thiazole) was “Decreased cellular proliferation”. For the same compound, in [3] (listed as 2-(p-Hydroxyanilino)-4-(p-chlorophenyl)thiazole), the cellular proliferation result is given as “significantly decreased the rate of proliferation”. For the same compound, the anti-tumor activity result in data set [4] is on record as “anti-tumor activity”. In addition, in the data set on U118MG cell line, the “expression of urokinase plasminogen activator” value was “Blocked” and the invasiveness result is given as “Decreased invasiveness”. Moreover, the cancer cell death result in the data set with U251MG, D54MG cell lines (TMZ resistant GBM cell lines U251 and D54MG) is listed as “promote cancer cell death”. For the same compound, in the data set on U251MG, D54MG cell lines (U251MG, D54MG), the “activity in cell lines made resistant to TMZ” value is “Active in cell lines mde resistant”. Moreover, in the data set on U98G cell line, the “cell cycle (accumulation of cells at G1)” value is given as “accumulation of cells at G1” and the proliferation result was “Decreased proliferation. Caused”.

As for `O=C(NN=Cc1c(O)ccc2ccccc12)c1cc(-c2ccc3ccccc3c2)n[nH]1` [SKI-I, 5-naphthalen-2-yl-2H-pyrazole-3-carboxylic acid (2-hydroxy-naphthalen-1-ylmethylene)-hydrazide], the anti-tumor activity result in data set [2] and in data set [4] was “anti-tumor activity” each time.

For `O=C1C(=Cc2ccc(O)c(O)c2)Oc2ccccc21` [SKI-V, 2-(3,4-dihydroxy-benzylidene)-benzofuran-3-one], the anti-tumor activity result in data set [2] and in data set [4] was “anti-tumor activity” in each case.

Take `Cc1cn(-c2cc(NC(=O)c3ccc(C)c(Nc4nccc(-c5cccnc5)n4)c3)cc(C(F)(F)F)c2)cn1` [Nilotinib]: in the data set on SK (sphingosine kinase), the “Sphingolipid Enzymes Affected: SK” value is recorded as “↓SK”. Moreover, in data set [1], the “Sphingolipid Enzymes Affected: Cer Syn” value was “↑Cer Syn”.

Turning to `CCCCCCCCCCCCC/C=C/[C@@H](O)[C@H](CO)[N+](C)(C)C` [N,N,N-trimethylsphingosine], in the data set with tumor, the anti-tumor activity alone entry was “did not appear to have significant anti-tumor activity alone”.

As for `CCCCCCCCCCCCC/C=C/[C@@H](O)[C@H](CO)N(C)C` [N,N-dimethylshingosine], in [5], the “tumor necrosis factor-α induced GTP cyclohydrolase (GTPCH) activity” value is recorded as “Suppressed tumor necrosis”.

As for `O=C(NCc1ccncc1)C12CC3CC(C1)CC(c1ccc(Cl)cc1)(C3)C2` [ABC294640, 3-(4-chlorophenyl)-adamantane-1-carboxylic acid (pyridin-4-ylmethyl) amide], the cancer growth entry in data set [6] is “significantly blocked cancer growth”. In [7], the cell viability entry was “reduced cell viability” and the expression of c-myc result is recorded as “decreased expression of c-myc”.

Regarding `CCN(CC)CCCC(C)Nc1ccnc2cc(Cl)ccc12` (stereo not drawn) [Chloroquine], the “Sphingolipid Enzymes Affected: SK” value in the data set with SK (sphingosine kinase) is reported as “↓SK”. The “Sphingolipid Enzymes Affected: SMase” value with SMase (Sphingomyelinase) is recorded as “↑↓Smase”. Also, the “Sphingolipid Enzymes Affected: Acid Cer” value in [8] was “↓Acid Cer”. Moreover, the “Sphingolipid Enzymes Affected: GCS” value in data set [9] is reported as “↑GCS”. Besides, in the data set on SM Syn, the “Sphingolipid Enzymes Affected: SM Syn” value was “↓SM Syn”.

Turning to `COc1cc(/C=C/C(=O)CC(=O)/C=C/c2ccc(O)c(OC)c2)ccc1O` [Curcumin], the “Sphingolipid Enzymes Affected: SK” value in the data set on SK (sphingosine kinase) is “↓SK”. The “Sphingolipid Enzymes Affected: SPT” value in data set [10] was “↑SPT”. Also, the “Sphingolipid Enzymes Affected: Cer Syn” value in data set [1] was “↑Cer Syn”.

Regarding `OC(c1cc(C(F)(F)F)nc2c(C(F)(F)F)cccc12)C1CCCCN1` (stereo not drawn) [Mefloquine], in the data set with SK (sphingosine kinase), the “Sphingolipid Enzymes Affected: SK” value is “↓SK”. Besides, the “Sphingolipid Enzymes Affected: SMase” value with SMase (Sphingomyelinase) was “↑↓Smase”. Further, the “Sphingolipid Enzymes Affected: Acid Cer” value in [8] is recorded as “↓Acid Cer”. Also, the “Sphingolipid Enzymes Affected: GCS” value in [9] was “↑GCS”. The “Sphingolipid Enzymes Affected: SM Syn” value with SM Syn was “↓SM Syn”.

Regarding `CCCCCCCCCCCCCCC[C@H](O)[C@@H](N)CO` [safingol, D,L-threodihydrosphingosine], in the data set with tumor, the anti-tumor activity alone result was “did not appear to have significant anti-tumor activity alone”.

As for `CCCCCc1ccc(/C=C/[C@H](O)[C@@H](CO)NC)cc1` [SK1-I, (2R,3S,4E)-N-methyl-5-(4′-pentylphenyl)-2-aminopent-4-ene-1,3-diol], in data set [11], the apoptosis result is on record as “prompts apoptosis”, the “protein kinase B (Akt) signaling” value is “inhibits protein kinase B (Akt) signaling” and the tumor development entry is given as “suppresses tumor development”. In the data set with protein kinase C, the “inhibition of protein kinase C” value was “does not inhibit”. Also, in [12], the angiogenesis entry is on record as “Reduced”, the apoptosis entry is given as “Caused apoptosis” and the tumor growth rate result is reported as “Reduced tumor growth rate”. Further, the “inhibition of other serine/threonine kinases” value in data set [13] is recorded as “does not inhibit”. Besides, on SK2, the “inhibition of SK2” value is given as “does not inhibit”. Moreover, in the data set with protein kinase B, the “inhibition of protein kinase B” value is on record as “does not inhibit”. For the same compound, in data set [14], the apoptosis entry is “induced apoptosis” and the tumor growth result is on record as “blocked tumor growth”. In the data set with LN229, U373 cell lines, the cell growth entry is “Inhibited cell growth” and the migration result is reported as “Inhibited”. Moreover, in the data set on GBM6 cell lines, the cell growth result is given as “Reduced cell growth” and the “epidermal growth factor-stimulated phosphorylation of Akt” value was “Reduced”.

In the case of `Oc1ccc(C=Cc2cc(O)cc(O)c2)cc1` [Resveratrol], in the data set with SK (sphingosine kinase), the “Sphingolipid Enzymes Affected: SK” value is reported as “↓SK”. Moreover, the “Sphingolipid Enzymes Affected: SPT” value in data set [10] is listed as “↑SPT”. Moreover, in data set [1], the “Sphingolipid Enzymes Affected: Cer Syn” value is listed as “↑Cer Syn”.

As to `CC/C(=C(\c1ccccc1)c1ccc(OCCN(C)C)cc1)c1ccccc1` [tamoxifen], the “Sphingolipid Enzymes Affected: Acid Cer” value in data set [8] is reported as “decreases acid ceramidase”.
